Literature values in patent US12091679B2, “Storage method and banking system of NT cell” (SUNGKWANG MEDICAL FOUNDATION, priority 2015, dated 2024).

Tested on: various animal cancer models

| SMILES | anticancer activity |
| --- | --- |
| CC(C)N(C[C@H]1O[C@@H](n2cnc3c(N)ncnc32)[C@H](O)[C@@H]1O)[C@H]1C[C@@H](CCc2nc3cc(C(C)(C)C)ccc3[nH]2)C1 [EPZ5676] | show anticancer activity |
| Cc1cc(C)c(CNC(=O)c2cc(-c3ccc(CN4CCOCC4)cc3)cc3c2cnn3C2CCCC2)c(=O)[nH]1 [EPZ005687] | show anticancer activity |
| CC[C@H](C)n1cc(C)c2c(C(=O)NCc3c(C)cc(C)[nH]c3=O)cc(-c3ccc(N4CCNCC4)nc3)cc21 [GSK126] | show anticancer activity |
